Experiment [1] deals with T1, AP-1 complex (Fos/Jun peptide) (Homo sapiens, UniProt P01100+P05412).
T1 construct: made in house; host or cells: chemical peptide synthesis (no expression host)
In words: Effect on AP-1 binding activity to AP-1 recognition sequence (ELISA). The note with it: inhibition of binding of digoxigenin-labeled AP-1 binding sequence oligonucleotide to Fos/Jun peptide, absorbance 492 nm, read-out: Concentration (μM) at 50% inhibition. Here is the method: Test Example 1 Effect on AP-1 Binding Activity to AP-1 Recognition Sequence (ELISA)
Jun peptide and Fos peptide with its N-terminal labeled with biotin via 4 glycine residues containing a DNA binding site [Nature, Vol. 373, 1995, 257-261] were synthesized. Each of the peptides was dissolved in Tris buffer [20 mM Tris-hydrochloric acid (pH 7.5), 50 mM potassium chloride, 1 mM ethylenediaminetetraacetic acid, 10 mM magnesium chloride, 1 mM dithiothreitol, 0.5 M guanidinohydrochloric acid, 30% glycerol], and equimolar amounts of the peptide solutions were mixed with each other to be used as an AP-1 complex (Fos/Jun peptide). The AP-1 complex was added onto a 96-well avidin-coated ELISA plate (10 pmol/well). The plate was washed, blocked by bovine serum albumin, and used for binding assay.
Digoxigenin-labeled double-stranded oligonucleotide (22mer) that contained AP-1 binding sequence (3′-TGAGTCA-5′) synthesized by conventional procedure was reacted in binding reaction solution [25 mM tris-hydrochloric acid (pH 7.9), 0.5 mM ethylenediaminetetraacetic acid, 0.05% Nonidet P-40, 10% glycerol] for 30 minutes at room temperature in the presence or absence of samples. After the reaction, unbound labeled oligonucleotide was removed by washing with HEPES buffer containing 0.05% Tween-20. Then peroxidase-labeled anti-digoxigenin antibody was added to react with the labeled oligonucleotide bound to AP-1. After removing excess antibody by washing with HEPES buffer containing 0.05% Tween-20, incubation was conducted for a certain period with o-phenylene diamine as a substrate in 100 mM citric acid buffer (pH 5.0) containing hydrogen peroxide, sulfuric acid solution was added to each well, and the absorbance (492 nm) was measured. Inhibition rate of each sample was calculated from the absorbance obtained in the binding assay carried out in the presence of the sample, taking the absorbance obtained in the absence of the sample=100%.

Another experiment deals with Male DBA/1J mice. Kind of experiment: Type II collagen-induced arthritis in mouse. Format: in vivo. The note with it: 10 mg/kg orally once a day from 21 to 35 days after the initial inoculation, vs control group; for Bone destruction inhibition rate: X-ray bone destruction score 36 days after initial inoculation; for Arthritis inhibition rate: arthritis score on 36 days after initial inoculation. Here is the method:
Test Example 2 Type II Collagen-Induced Arthritis in Mouse
Male DBA/1J mice aged 8 weeks (Charles River Japan) were used. To a solution of 2 mg/mL bovine type II collagen in 0.1 mol/L acetic acid (Koken), an […] of Freund's complete adjuvant (DIFCO) was added to prepare an emulsion, and 0.2 ml of the emulsion was subcutaneously injected in the tail root region of each mouse. The same treatment was given 21 days after the initial inoculation to induce arthritis in the mice. Test compounds were each suspended in 0.5% methylcellulose solution, and 10 mg/kg of each test compound was given orally to mice once a day from 21 to 35 days after the initial inoculation. To a control group (a negative control group), 0.5% methylcellulose solution was given in the same manner.
Taking the maximum score as 12, the arthritis score was calculated to evaluate the severity of arthritis that was evaluated in the following manner: score 0: no change; score 1: swelling on one or two toes, or slight swelling in the carpal and tarsal joints; score 2: swelling and rubor in more joints; score 3: extensive swelling over whole foreleg or hindleg; and total of the four legs was calculated.
X-ray photographs of four paws were taken 36 days after the initial inoculation, and the severity of bone destruction was evaluated as bone destruction score on a maximum scale, the sum of the points for extremities, of 105 points: 0 or 0.5 points in accordance with presence or absence of osteoporosis in the joints and their vicinity, and for bone erosion, no change at 0 point; “partial bone destruction” at 1 point and “complete bone destruction” at 2 points in the second to fifth interdigital joints, the first to fifth metacarpal and metatarsal joints, and carpal, tarsal and calcaneal regions. Inhibition rate was calculated using the following equation: Inhibition rate(%)=100−(score of the group given the test compound/score of the control group)×100

The values below come from patent publication US7772285B2, “Benzophenone derivatives or salts thereof” (Toyama Chemical Co., Ltd., priority 2001, dated 2010).

T1 sequence (P01100 137-200 limits assumed): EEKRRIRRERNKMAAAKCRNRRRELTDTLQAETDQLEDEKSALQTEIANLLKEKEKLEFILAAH
T1 sequence (P05412 252-315 limits assumed): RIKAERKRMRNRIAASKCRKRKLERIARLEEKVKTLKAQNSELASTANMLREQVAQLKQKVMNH

`COc1cc(COc2ccc(C(=O)c3ccc(OC4CCCC4)cc3O)cc2CCC(=O)O)ccc1CCC(=O)O` [49(11)]: in experiment [1], the IC50 came out at 390 µM.
On to `O=C(O)CCc1cc(C(=O)c2ccc(OC3CCCC3)cc2O)ccc1OCc1ccc(S(=O)(=O)O)cc1` [49(54)], for which the IC50 in experiment [1] came out at 270 µM.
The same measure, in the same setting: next, `O=C(O)CCc1cc(C(=O)c2ccc(OC3CCCC3)cc2O)ccc1OCc1ccc(C(=O)O)cc1F` [49(51)]: 300 µM; `O=C(O)CCc1cc(C(=O)c2ccc(OC3CCCC3)cc2O)ccc1OCc1ccc2[nH]c(=O)[nH]c(=O)c2c1` [49(70)]: 180 µM; `O=C(O)CCc1cc(C(=O)c2ccc(OC3CCCCC3)cc2O)ccc1OCc1ccc(C(=O)O)cc1` [49(20)]: 320 µM.
`O=C(O)CCc1cc(C(=O)c2ccc(OC3CCCC3)cc2O)ccc1OCc1ccc(C(=O)O)cc1` [Example 44, 4-({2-(2-carboxyethyl)-4-[4-(cyclopentyloxy)-2-hydroxybenzoyl]phenoxy}methyl) benzoic acid]: in experiment [1], the IC50 was 420 µM.
With `CN1CCN(c2ccc(COc3ccc(C(=O)c4ccc(OC5CCCC5)cc4O)cc3CCC(=O)O)cc2)C(=O)C1=O` [49(76)], in experiment [1], the IC50 was 380 µM.
In the case of `CCOC(=O)c1ccc(COc2ccc(C(=O)c3ccc(OC4CCCC4)cc3O)cc2CCC(=O)O)cc1OC` [54(2), 3-(5-[4-(cyclopentyloxy)-2-hydroxybenzoyl]-2-{[4-(ethoxycarbonyl)-3-methoxybenzyl]oxy}phenyl) propanoic acid], in the experiment with Male DBA/1J mice, the “Bone destruction inhibition rate” value was found to be 78% and the Arthritis inhibition rate came out at 65%.
Regarding `O=C(O)CCc1cc(C(=O)c2ccc(C3CCCC3)cc2O)ccc1OCc1ccc(C(=O)O)cc1` [49(39)], the IC50 in experiment [1] was 360 µM.
As for `O=C(O)CCc1cc(C(=O)c2ccc(OC3CCCC3)cc2O)ccc1OCc1ccc(C(=O)O)cc1O` [32(1), 4-({2-(2-carboxyethyl)-4-[4-(cyclopentyloxy)-2-hydroxybenzoyl]phenoxy}methyl)-3-hydroxybenzoic acid], in experiment [1], the IC50 turned out to be 310 µM.
As to `O=C(CCc1cc(C(=O)c2ccc(OC3CCCC3)cc2O)ccc1OCc1ccc2c(O)noc2c1)OCCN1CCOCC1` [Example 76, 2-(4-morpholinyl) ethyl 3-{5-[4-(cyclopentyloxy)-2-hydroxybenzoyl]-2-[(3-hydroxy-1,2-benzisoxazol-6-yl)methoxy]phenyl} propanoate], in the experiment with Male DBA/1J mice, the “Bone destruction inhibition rate” value is reported as 99% and the Arthritis inhibition rate was determined as 90%.
For `O=C(O)CCc1cc(C(=O)c2ccc(OC3CCCC3)cc2O)ccc1OCc1ccc(-c2cc(O)no2)cc1` [Example 47, 3-(5-[4-(cyclopentyloxy)-2-hydroxybenzoyl]-2-{[4-(3-hydroxy-5-isoxazolyl)benzyl]oxy}phenyl) propanoic acid], the IC50 in experiment [1] turned out to be 170 µM.
On the same count and under the same terms, next, `O=C(O)CCc1ccc(COc2ccc(C(=O)c3ccc(OC4CCCC4)cc3O)cc2CCC(=O)O)cc1` [49(1)]: 330 µM.
On the same count and under the same terms, next, `Cc1cc(C(=O)O)ccc1COc1ccc(C(=O)c2ccc(OC3CCCC3)cc2O)cc1CCC(=O)O` [49(3)]: 240 µM.
For `CCOC(=O)CCc1cc(C(=O)c2ccc(OCC(C)C)cc2O)ccc1OCc1ccc(C(=O)O)cc1` [72(1), 4-{[2-(3-ethoxy-3-oxopropyl)-4-(2-hydroxy-4-isobutoxybenzoyl)phenoxy]methyl} benzoic acid], the IC50 in experiment [1] amounted to 240 µM.
With `CC(C)COc1ccc(C(=O)c2ccc(OCc3ccc(C(=O)O)cc3)c(CCC(=O)O)c2)c(O)c1` [49(47)], the IC50 in experiment [1] is 460 µM.
As for `O=C(O)CCc1cc(C(=O)c2ccc(OCC3CCCCC3)cc2O)ccc1OCc1ccc(C(=O)O)cc1` [49(56)], the IC50 in experiment [1] was 130 µM.
As to `O=C(O)CCc1cc(C(=O)c2ccc(OC3CCCC3)cc2O)ccc1OCc1csc2c(C(=O)O)cccc12` [Example 45, 3-({2-(2-carboxyethyl)-4-[4-(cyclopentyloxy)-2-hydroxybenzoyl]phenoxy}methyl)-1-benzothiophene-7-carboxilic acid], the IC50 in experiment [1] stood at 140 µM. Also, in the experiment with Male DBA/1J mice, the “Bone destruction inhibition rate” value was determined as 81% and the Arthritis inhibition rate was determined as 55%.
For `O=C(O)CCc1cc(C(=O)c2ccc(OC3CCCC3)cc2O)ccc1OCc1nc2cc(C(=O)O)ccc2s1` [49(77)], the IC50 in experiment [1] was 380 µM.
The same measure, in the same setting: next, `O=C(O)CCc1cc(C(=O)c2ccc(-c3cccs3)cc2O)ccc1OCc1ccc(C(=O)O)cc1` [49(16)]: 380 µM.
For the molecule `CC(Oc1ccc(C(=O)c2ccc(OC3CCCC3)cc2O)cc1CCC(=O)O)c1ccc(C(=O)O)cc1` (centres unmarked) [49(12)], in experiment [1], the IC50 is 700 µM. In addition, in the experiment on Male DBA/1J mice, the “Bone destruction inhibition rate” value came out at 76% and the Arthritis inhibition rate is 50%.
As for `O=C(O)CCc1cc(C(=O)c2ccc(OCC3CCCC3)cc2O)ccc1OCc1ccc(C(=O)O)cc1` [49(29)], the IC50 in experiment [1] was found to be 220 µM.
The same measure, in the same setting: next, `CC(C)(C)COc1ccc(C(=O)c2ccc(OCc3ccc(C(=O)O)cc3)c(CCC(=O)O)c2)c(O)c1` [49(19)]: 280 µM.
Turning to `O=C(O)CCc1cc(C(=O)c2ccc(OCc3ccco3)cc2O)ccc1OCc1ccc(C(=O)O)cc1` [49(40)], the IC50 in experiment [1] was determined as 280 µM.
The same measure, in the same setting: with `O=C(O)/C=C/c1ccc(COc2ccc(C(=O)c3ccc(OC4CCCC4)cc3O)cc2CCC(=O)O)cc1` [Example 46, (E)-3-(4-{[4-[4-(cyclopentyloxy)-2-hydroxybenzoyl]-2-(3-hydroxy-3-oxopropyl)phenoxy]methyl}phenyl)-2-propenoic acid] the figure was 330 µM.
Regarding `O=C(O)CCc1cc(C(=O)c2ccc(OC3CCCCCC3)cc2O)ccc1OCc1ccc(C(=O)O)cc1` [49(58)], in experiment [1], the IC50 came out at 190 µM.
Same read-out and setting: with `CS(=O)(=O)NC(=O)c1ccc(COc2ccc(C(=O)c3ccc(OC4CCCC4)cc3O)cc2CCC(=O)O)cc1` [49(62)] the figure was 580 µM; with `CC(C)COc1cc(COc2ccc(C(=O)c3ccc(OC4CCCC4)cc3O)cc2CCC(=O)O)ccc1C(=O)O` [49(46)], 320 µM.
Still for that read-out and setting: with `CC(C)COc1ccc(C(=O)c2ccc(OCc3ccc(C(=O)NO)cc3)c(CCC(=O)O)c2)c(O)c1` [49(48)] the figure was 310 µM.
As for `O=C(O)CCc1cc(C(=O)c2ccc(OC3CCCC3)cc2O)ccc1OCc1ccc2c(O)noc2c1` [Example 35, 3-{5-[4-(cyclopentyloxy)-2-hydroxybenzoyl]-2-[(3-hydroxyl-1,2-benzisoxazol-6-yl)methoxy]phenyl}propanoic acid], in experiment [1], the IC50 was found to be 290 µM. For the same molecule, in the experiment on Male DBA/1J mice, the “Bone destruction inhibition rate” value stood at 92% and the Arthritis inhibition rate amounted to 76%.
Take `CC(C)COc1ccc(C(=O)c2ccc(OCc3ccc(C(=O)O)cc3)c(CCC(=O)O)c2)c(OCC(C)C)c1` [49(9)]: in experiment [1], the IC50 was found to be 490 µM.
For the molecule `COc1cc(COc2ccc(C(=O)c3ccc(OC4CCCC4)cc3O)cc2CCC(=O)O)ccc1C(=O)O` [Example 48, 4-({2-(2-carboxyethyl)-4-[4-(cyclopentyloxy)-2-hydroxybenzoyl]phenoxy}methyl)-2-methoxybenzoic acid], in experiment [1], the IC50 amounted to 700 µM. Further, in the experiment on Male DBA/1J mice, the “Bone destruction inhibition rate” value worked out at 64% and the Arthritis inhibition rate is listed as 57%.
`CC(C)COc1ccc(C(=O)c2ccc(OCc3ccc(C(=O)NS(C)(=O)=O)cc3)c(CCC(=O)O)c2)c(O)c1` [49(8)]: the IC50 in experiment [1] was 320 µM.
Same read-out and setting: next, `O=C(O)CCc1cc(C(=O)c2ccc(CC3CCCC3)cc2O)ccc1OCc1ccc(C(=O)O)cc1` [49(22)]: 200 µM.
